According to patent US20060069132A1, “Azolecarboxamide herbicides” (priority 2004, published 2006):

Legend:
Assay in all cases: Test E pre-/postemergence herbicide test
[1] = tested on: Italian ryegrass; type: in vivo, Lolium multiflorum
Summary of the method: (§1)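 Greenhouse whole-plant test: compounds formulated in a non-phytotoxic solvent mixture with surfactant were applied preemergence to planted seeds and, concurrently, postemergence to plants 2 to 18 cm tall. Response was scored visually after 12 to 14 days, 0 meaning no effect and 100 complete control.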

[2] = tested on: goosegrass; type: in vivo, Eleusine indica
Summary of the method: as §1

[3] = tested on: barnyardgrass; type: in vivo, Echinochloa crus-galli
Summary of the method: as §1

[4] = tested on: Canada horseweed; type: in vivo, Erigeron Canadensis
Summary of the method: as §1

[5] = tested on: pitted morningglory; type: in vivo, Ipomoea lacunosa
Summary of the method: as §1

[6] = tested on: large crabgrass; type: in vivo, Digitaria sanguinalis
Summary of the method: as §1

[7] = tested on: prickly sida; type: in vivo, Sida spinosa
Summary of the method: as §1

[8] = tested on: downy bromegrass; type: in vivo, Bromus tectorum
Summary of the method: as §1

[9] = tested on: broadleaf signalgrass; type: in vivo, Brachiaria platyphylla
Summary of the method: as §1

[10] = Postemergence, 500 g ai/ha, scale 0 to 100
[11] = Postemergence, 250 g ai/ha, scale 0 to 100
[12] = Preemergence, 62 g ai/ha, scale 0 to 100
[13] = Preemergence, 125 g ai/ha, scale 0 to 100
[14] = Preemergence, 250 g ai/ha, scale 0 (no effect) to 100 (complete control)
[15] = Preemergence, 500 g ai/ha, scale 0 (no effect) to 100 (complete control)
[16] = postemergence, 125 g ai/ha, scale 0 to 100
[17] = postemergence, 62 g ai/ha, scale 0 to 100

## CCNC(=O)c1ccc(F)c(NC(=O)c2cn(C(C)(C)C)nc2CC)c1 [Compound 193]
[1]; [10]
  Plant response rating, Ryegrass, Italian: 95
[1]; [11]
  Plant response rating, Ryegrass, Italian: 95
[1]; [12]
  Plant response rating, Ryegrass, Italian: 20
[1]; [13]
  Plant response rating, Ryegrass, Italian: 90
[1]; [14]
  Plant response rating, Ryegrass, Italian: 100
[1]; [15]
  Plant response rating, Ryegrass, Italian: 100
[1]; [16]
  Plant response rating, Ryegrass, Italian: 60
[1]; [17]
  Plant response rating, Ryegrass, Italian: 30
[2]; [10]
  Plant response rating, Goosegrass: 85
[2]; [11]
  Plant response rating, Goosegrass: 80
[2]; [12]
  Plant response rating, Goosegrass: 30
[2]; [13]
  Plant response rating, Goosegrass: 80
[2]; [14]
  Plant response rating, Goosegrass: 90
[2]; [15]
  Plant response rating, Goosegrass: 95
[2]; [16]
  Plant response rating, Goosegrass: 70
[2]; [17]
  Plant response rating, Goosegrass: 20
[3]; [10]
  Plant response rating, Barnyardgrass: 90
[3]; [11]
  Plant response rating, Barnyardgrass: 80
[3]; [12]
  Plant response rating, Barnyardgrass: 20
[3]; [13]
  Plant response rating, Barnyardgrass: 75
[3]; [14]
  Plant response rating, Barnyardgrass: 85
[3]; [15]
  Plant response rating, Barnyardgrass: 95
[3]; [16]
  Plant response rating, Barnyardgrass: 75
[3]; [17]
  Plant response rating, Barnyardgrass: 10
[4]; [10]
  Plant response rating, Horseweed: 90
[4]; [11]
  Plant response rating, Horseweed: 70
[4]; [12]
  Plant response rating, Horseweed: 80
[4]; [13]
  Plant response rating, Horseweed: 100
[4]; [14]
  Plant response rating, Horseweed: 100
[4]; [15]
  Plant response rating, Horseweed: 100
[4]; [16]
  Plant response rating, Horseweed: 50
[4]; [17]
  Plant response rating, Horseweed: 50
[5]; [10]
  Plant response rating, Morningglory: 75
[5]; [11]
  Plant response rating, Morningglory: 60
[5]; [12]
  Plant response rating, Morningglory: 0
[5]; [13]
  Plant response rating, Morningglory: 20
[5]; [14]
  Plant response rating, Morningglory: 50
[5]; [15]
  Plant response rating, Morningglory: 70
[5]; [16]
  Plant response rating, Morningglory: 60
[5]; [17]
  Plant response rating, Morningglory: 30
[6]; [10]
  Plant response rating, Crabgrass, Large: 100
[6]; [11]
  Plant response rating, Crabgrass, Large: 100
[6]; [12]
  Plant response rating, Crabgrass, Large: 60
[6]; [13]
  Plant response rating, Crabgrass, Large: 80
[6]; [14]
  Plant response rating, Crabgrass, Large: 100
[6]; [15]
  Plant response rating, Crabgrass, Large: 100
[6]; [16]
  Plant response rating, Crabgrass, Large: 80
[6]; [17]
  Plant response rating, Crabgrass, Large: 10
[7]; [10]
  Plant response rating, Prickly Sida: 95
[7]; [11]
  Plant response rating, Prickly Sida: 75
[7]; [12]
  Plant response rating, Prickly Sida: 20
[7]; [13]
  Plant response rating, Prickly Sida: 70
[7]; [14]
  Plant response rating, Prickly Sida: 70
[7]; [15]
  Plant response rating, Prickly Sida: 95
[7]; [16]
  Plant response rating, Prickly Sida: 60
[7]; [17]
  Plant response rating, Prickly Sida: 60
[8]; [10]
  Plant response rating, Bromegrass, Downy: 80
[8]; [11]
  Plant response rating, Bromegrass, Downy: 70
[8]; [12]
  Plant response rating, Bromegrass, Downy: 10
[8]; [13]
  Plant response rating, Bromegrass, Downy: 30
[8]; [14]
  Plant response rating, Bromegrass, Downy: 80
[8]; [15]
  Plant response rating, Bromegrass, Downy: 90
[8]; [16]
  Plant response rating, Bromegrass, Downy: 30
[8]; [17]
  Plant response rating, Bromegrass, Downy: 20
[9]; [10]
  Plant response rating, Signalgrass: 80
[9]; [11]
  Plant response rating, Signalgrass: 75
[9]; [12]
  Plant response rating, Signalgrass: 10
[9]; [13]
  Plant response rating, Signalgrass: 60
[9]; [14]
  Plant response rating, Signalgrass: 70
[9]; [15]
  Plant response rating, Signalgrass: 95
[9]; [16]
  Plant response rating, Signalgrass: 50
[9]; [17]
  Plant response rating, Signalgrass: 10

## CCc1nn(C(C)(C)C)cc1C(=O)Nc1cc(C(=O)N(C)C)ccc1F [Compound 222, N-[5-[(dimethylamino)carbonyl]-2-fluorophenyl]-1-(1,1-dimethylethyl)-3-ethyl-1H-pyrazole-4-carboxamide]
[1]; [10]
  Plant response rating, Ryegrass, Italian: 85
[1]; [11]
  Plant response rating, Ryegrass, Italian: 85
[1]; [12]
  Plant response rating, Ryegrass, Italian: 50
[1]; [13]
  Plant response rating, Ryegrass, Italian: 100
[1]; [14]
  Plant response rating, Ryegrass, Italian: 100
[1]; [15]
  Plant response rating, Ryegrass, Italian: 100
[1]; [16]
  Plant response rating, Ryegrass, Italian: 80
[1]; [17]
  Plant response rating, Ryegrass, Italian: 50
[2]; [10]
  Plant response rating, Goosegrass: 90
[2]; [11]
  Plant response rating, Goosegrass: 90
[2]; [12]
  Plant response rating, Goosegrass: 60
[2]; [13]
  Plant response rating, Goosegrass: 75
[2]; [14]
  Plant response rating, Goosegrass: 90
[2]; [15]
  Plant response rating, Goosegrass: 95
[2]; [16]
  Plant response rating, Goosegrass: 75
[2]; [17]
  Plant response rating, Goosegrass: 60
[3]; [11]
  Plant response rating, Barnyardgrass: 70
[3]; [12]
  Plant response rating, Barnyardgrass: 50
[3]; [13]
  Plant response rating, Barnyardgrass: 90
[3]; [14]
  Plant response rating, Barnyardgrass: 100
[3]; [15]
  Plant response rating, Barnyardgrass: 100
[3]; [16]
  Plant response rating, Barnyardgrass: 50
[3]; [17]
  Plant response rating, Barnyardgrass: 50
[4]; [10]
  Plant response rating, Horseweed: 100
[4]; [11]
  Plant response rating, Horseweed: 90
[4]; [12]
  Plant response rating, Horseweed: 100
[4]; [13]
  Plant response rating, Horseweed: 100
[4]; [14]
  Plant response rating, Horseweed: 100
[4]; [15]
  Plant response rating, Horseweed: 100
[4]; [16]
  Plant response rating, Horseweed: 40
[4]; [17]
  Plant response rating, Horseweed: 20
[5]; [10]
  Plant response rating, Morningglory: 90
[5]; [11]
  Plant response rating, Morningglory: 60
[5]; [13]
  Plant response rating, Morningglory: 30
[5]; [14]
  Plant response rating, Morningglory: 40
[5]; [15]
  Plant response rating, Morningglory: 95
[5]; [16]
  Plant response rating, Morningglory: 40
[5]; [17]
  Plant response rating, Morningglory: 20
[6]; [10]
  Plant response rating, Crabgrass, Large: 100
[6]; [11]
  Plant response rating, Crabgrass, Large: 90
[6]; [12]
  Plant response rating, Crabgrass, Large: 70
[6]; [13]
  Plant response rating, Crabgrass, Large: 100
[6]; [14]
  Plant response rating, Crabgrass, Large: 100
[6]; [15]
  Plant response rating, Crabgrass, Large: 100
[6]; [16]
  Plant response rating, Crabgrass, Large: 80
[6]; [17]
  Plant response rating, Crabgrass, Large: 60
[7]; [10]
  Plant response rating, Prickly Sida: 100
[7]; [11]
  Plant response rating, Prickly Sida: 100
[7]; [12]
  Plant response rating, Prickly Sida: 20
[7]; [13]
  Plant response rating, Prickly Sida: 70
[7]; [14]
  Plant response rating, Prickly Sida: 100
[7]; [15]
  Plant response rating, Prickly Sida: 100
[7]; [16]
  Plant response rating, Prickly Sida: 100
[7]; [17]
  Plant response rating, Prickly Sida: 90
[8]; [11]
  Plant response rating, Bromegrass, Downy: 80
[8]; [12]
  Plant response rating, Bromegrass, Downy: 30
[8]; [13]
  Plant response rating, Bromegrass, Downy: 90
[8]; [14]
  Plant response rating, Bromegrass, Downy: 90
[8]; [15]
  Plant response rating, Bromegrass, Downy: 100
[8]; [16]
  Plant response rating, Bromegrass, Downy: 50
[8]; [17]
  Plant response rating, Bromegrass, Downy: 10
[9]; [10]
  Plant response rating, Signalgrass: 85
[9]; [11]
  Plant response rating, Signalgrass: 80
[9]; [12]
  Plant response rating, Signalgrass: 10
[9]; [13]
  Plant response rating, Signalgrass: 60
[9]; [14]
  Plant response rating, Signalgrass: 95
[9]; [15]
  Plant response rating, Signalgrass: 95
[9]; [16]
  Plant response rating, Signalgrass: 40
[9]; [17]
  Plant response rating, Signalgrass: 10

## CCc1nn(C(C)C)nc1C(=O)Nc1cccc(C(=O)N2CCCCC2)c1 [Compound 385]
[1]; [12]
  Plant response rating, Ryegrass, Italian: 10
[1]; [13]
  Plant response rating, Ryegrass, Italian: 30
[1]; [14]
  Plant response rating, Ryegrass, Italian: 60
[2]; [12]
  Plant response rating, Goosegrass: 20
[2]; [13]
  Plant response rating, Goosegrass: 20
[2]; [14]
  Plant response rating, Goosegrass: 50
[3]; [12]
  Plant response rating, Barnyardgrass: 20
[3]; [13]
  Plant response rating, Barnyardgrass: 50
[3]; [14]
  Plant response rating, Barnyardgrass: 70
[4]; [12]
  Plant response rating, Horseweed: 0
[4]; [14]
  Plant response rating, Horseweed: 0
[5]; [12]
  Plant response rating, Morningglory: 10
[5]; [13]
  Plant response rating, Morningglory: 10
[5]; [14]
  Plant response rating, Morningglory: 10
[6]; [12]
  Plant response rating, Crabgrass, Large: 80
[6]; [13]
  Plant response rating, Crabgrass, Large: 80
[6]; [14]
  Plant response rating, Crabgrass, Large: 80
[7]; [12]
  Plant response rating, Prickly Sida: 10
[7]; [13]
  Plant response rating, Prickly Sida: 100
[7]; [14]
  Plant response rating, Prickly Sida: 100
[8]; [12]
  Plant response rating, Bromegrass, Downy: 10
[8]; [13]
  Plant response rating, Bromegrass, Downy: 10
[8]; [14]
  Plant response rating, Bromegrass, Downy: 20
[9]; [12]
  Plant response rating, Signalgrass: 10
[9]; [13]
  Plant response rating, Signalgrass: 20
[9]; [14]
  Plant response rating, Signalgrass: 20
